Test results from US7071359B1, “Neuropathy improvers containing nitrogenous compounds as the active ingredient” (Teijin Limited, priority 1999, dated 2006).
“And” between values parts separate entries of the source, which are not always exact repeats. Equal entries are not always repeated.

Experiments:
[1] = tested on: Mouse neuroblastoma Neuro2A cells; assay: Promotion activity on the neurite outgrowth (2): length of neurite per cell; assay type: cell-based
Experimental: (§1) Mouse neuroblastoma Neuro2A cells (obtained from DAINIPPON PHARMACEUTICAL CO., LTD.) were suspended with a density of 2.5×10^4 cells/mL in DMEM containing 10% FCS and 2 mM of Gln, and were plated on commercially available 24-well tissue culture plates with a quantity of 400 μL/well. After an overnight culture under the conditions where the temperature was 37° C., and the carbon dioxide content of the air was 5%, the media was exchanged to an identical media containing the test compound, and the culture was further continued for 24 hours. Then microscope photographs were taken with a 20× lens. Using the photographs, by counting the total number of cells in the field of view and the number of cells with extended neurite, the proportion of cells with extended neurite is calculated.
The cells used and the performed culture method were identical to those in Reference example (1). After being cultured in a media containing the test compound for 24 hours, microscope photographs were taken with a 20× lens. […] Using image processing software, the area covered by the neurites were calculated, and, since the thickness used to mark the neurite was uniform, the analysis was performed considering that the area was proportional to the length, and allowing to compute the length of neurite per cell.

[2] = tested on: Mouse neuroblastoma Neuro2A cells; assay: Promotion activity on the neurite outgrowth (1): proportion of cells with extended neurite; assay type: cell-based; conditions: for Proportion of cells with neurite (%) mean value ± standard error: 10 nM
Experimental: as §1

[3] = tested on: Bovine cerebral capillary endothelial cells; assay: Permeability through the blood brain barrier: incorporation into bovine cerebral capillary endothelial cells; assay type: in vitro ADME; conditions: test compound 1 μM, 15 minutes, ethanol extraction, HPLC
Experimental: Bovine cerebral capillary endothelial cells were cultured on a 100 mm diameter plate (coated with collagen I) to obtain confluency. The cells were cultured for 15 minutes in an incorporation media (141 mM NaCl, 4 mM KCl, 2 mM CaCl2, 1 mM […], 10 mM HEPES, 10 mM D-glucose) containing the test compound (1 μM), to incorporate the test compound into the cells. Then, the test compound incorporated into the cells was extracted with ethanol extraction, and quantified by HPLC. The rate of incorporation was calculated with the equation below. amount of test compound in the ethanol-extracted fraction/amount of test compound in the incorporation solution×100(%)

[4] = tested on: Wistar male rats, model for Alzheimer's disease by the continuous intracerebroventricular administration of β-amyloid proteins; assay: Step-through passive avoidance test in rats given β-amyloid protein continuously into the cerebral ventricle; assay type: in vivo, rat; conditions: Examples 44-47, β-amyloid protein alone 300 pmol/day, continuous intracerebroventricular by osmotic pump
Description: A step-through passive avoidance instrument made of two chambers separated by a guillotine door was used as the experimental apparatus. One chamber is an illuminated chamber made of transparent acrylic boards (floor: 15 cm×25 cm, height: 15 cm), the other chamber is a dark chamber made of black acryl boards (same dimensions). In addition, the floor of the dark chamber was equipped with a grid made of 4 mm diameter stainless steel pieces separated by 15 mm spacing. The grid was connected to an apparatus for delivering electric shocks (shock generator scrambler).
First, the guillotine door was opened for one minute to let a rat freely explore the interior of the apparatus. Then, for acquisition trials, the door was closed and the rat was put into the illuminated chamber. 30 seconds later, the door was opened and immediately after the four legs of the rat were put inside the dark chamber, the door was closed and an electric shock was delivered. The strength of the electric shock was 0.5 mA for 5 seconds. The training was repeated until the rat remained in the illuminated chamber for more than 120 seconds when the rat was placed in the illuminated chamber immediately after the electric shock and the door was opened in a similar way. 24 hours after the acquisition trials, the rat was put into the illuminating chamber for retention trials, 30 seconds after, the guillotine door was opened, and the time taken for the four legs of the rat to enter the dark chamber was measured (step-through latency). The maximum observation time during retention trials was set to 300 seconds.
(§2) 7 week old Wistar male rats (weight 220 to 250 g) were used (N=5 to 10).
β-amyloid protein (1–42) was dissolved in 35% acetonitrile-0.1% trifluoroacetic acid in water, injected in a mini-osmotic pump, which had been set to deliver 300 pmol/day (volume: 230 μL, flow: 0.5 μL/hour), and connected to a dental syringe needle through a polyethylene tube. Animals in control group were connected to a pump to which β-amyloid protein (40–1) orvehicleonly was injected. […]

[5] = tested on: Wistar male rats, model for Alzheimer's disease by the continuous intracerebroventricular administration of β-amyloid proteins; assay: Y-maze test (spontaneous alternation behavior test) in rats given β-amyloid protein continuously into the cerebral ventricle; assay type: in vivo, rat; conditions: Examples 48-51, β-amyloid protein alone 300 pmol/day, continuous intracerebroventricular by osmotic pump
Experimental: A Y-shaped maze made by connecting three arms having a length of 35 cm each, a wall height of 25 cm and a floor width of 10 cm at an angle of 120° with respect to each other. The apparatus was settled on the laboratory floor.
A rat was placed at the extremity of one of the arms, was allowed to freely explore the maze for 8 minutes, and a record was taken of the order in which the arms were explored by the rat. By calling (A) the “Total arm entries”, and among them, by calling (B) the “Number of spontaneous alternations” which is the number of cases where 3 different arms were selected in sequence, the “Percentage of spontaneous alternations” was calculated with: (B/(A−2))×100.
as §2
β-amyloid protein (1–42) was dissolved in 35% acetonitrile-0.1% trifluoroacetic acid in water, injected in a mini-osmotic pump, which had been set to deliver 300 pmol/day (volume: 230 μL, flow: 0.5 μL/hour), and connected to a dental syringe needle through a polyethylene tube. Animals in control group were connected to a pump to which β-amyloid protein (40–1) orvehicleonly was injected. After anesthetizing the rats with pentobarbital (50 mg/Kg, i.p.), an incision was performed in each of their scalps, and following the brainatlas, holes were drilled in the cranium. […]

[6] = listed as β-amyloid protein (1-42)
[7] = listed as β-amyloid protein (1–42)

CCCCC[C@H](O)/C=C/[C@H]1[C@H](O)CC(=O)[C@@H]1CCCCCCC(=O)O [PGE1]
Length of neurite per single cell (pixel/cell) mean value ± standard error ([1]; Example 53, 24 hours, 1 nM): 14.2 ± 1.5 pixel/cell | Length of neurite per single cell (pixel/cell) mean value ± standard error ([1]; Example 55, 24 hours, 100 nM): 5.7 ± 1.03 pixel/cell | Proportion of cells with neurite (%) mean value ± standard error ([2]; Example 52, 24 hours): 26.0 ± 3.0% | Proportion of cells with neurite (%) mean value ± standard error ([2]; Example 54, 24 hours): 19.5 ± 1.9% | Promotion activity on the neurite outgrowth (value relative to PGE1) ([2]; Example 56, 24 hours, 10 μM): 1.00 | Promotion activity on the neurite outgrowth (value relative to PGE1) ([2]; Example 57, 24 hours, 10 μM): 1.00 | Promotion activity on the neurite outgrowth (value relative to PGE1) ([2]; Example 58, 24 hours, 10 μM): 1.00

CCCC[C@](C)(O)C/C=C/[C@@H]1[C@H]2CC(CCCCC(=O)O)=C[C@H]2C[C@H]1O [Test compound B]
Rate of incorporation into bovine capillary endothelial cells (mean value of two experiments) ([3]; Example 61): below detection limit | Rate of incorporation into bovine capillary endothelial cells (mean value of two experiments) ([3]; Example 62): below detection limit | Promotion activity on the neurite outgrowth (value relative to PGE1) ([2]; Example 56, 24 hours, 10 μM): 1.63 | Promotion activity on the neurite outgrowth (value relative to PGE1) ([2]; Example 57, 24 hours, 0.1 μM (PGE1 at 10 μM)): 1.12

Cc1cccc(C[C@@H](O)/C=C/[C@@H]2[C@H]3CC(CCCCCN4CCCC4)=C[C@H]3C[C@H]2O)c1 [Test compound C]
Promotion activity on the neurite outgrowth (value relative to PGE1) ([2]; Example 56, 24 hours, 10 μM): 1.15

Cc1cccc(C[C@H](O)/C=C/[C@@H]2[C@H]3CC(CCCCCN(C)C)=C[C@H]3C[C@H]2O)c1 [Test compound D]
Promotion activity on the neurite outgrowth (value relative to PGE1) ([2]; Example 56, 24 hours, 10 μM): 1.31

CCCC[C@](C)(O)C/C=C/[C@@H]1[C@H]2CC(CCCCCN(C)C)=C[C@H]2C[C@H]1O [Test compound E]
Promotion activity on the neurite outgrowth (value relative to PGE1) ([2]; Example 56, 24 hours, 10 μM): 1.58

β-amyloid protein(1-42): β-amyloid protein (1–42) given continuously into the cerebral ventricle by mini-osmotic pump to lower learning and memory in the rat model
Time taken to move into the dark chamber during retention trials mean value ± standard error [4]: 140.2 ± 53.8 (n = 5) seconds and 132.8 ± 58.1 (n = 5) seconds | Time taken to move into the dark chamber during retention trials mean value ± standard error [4, 6]: 191.7 ± 49.0 s | Time taken to move into the dark chamber during retention trials mean value ± standard error [4, 7]: a decrease in the ability of learning and memory was observed | Occurrence of spontaneous alternation behavior mean value ± standard error [5, 6]: 65.6 ± 3.4% and 66.5 ± 4.7% and 59.1 ± 3.0% | Occurrence of spontaneous alternation behavior mean value ± standard error [5, 7]: a decrease in the ability of learning and memory was observed
